Test results published in ChEMBL document CHEMBL1201862, “PubChem BioAssay data set” (2004).
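48-hour exposure; five concentrations; linearly interpolated endpoints. The concentration for 50% growth inhibition is given as GI50.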 The source made the active and inactive calls. Rule as the data show it: active = GI50 up to about 1.1 µM and inactive = higher.

Key:
Test in all cases: NCI tumour cell line growth inhibition, 48 h
DMS-114 = tested on: DMS-114
OVCAR-5 = tested on: OVCAR-5
HL-60 = tested on: HL-60
SF-539 = tested on: SF-539
SK-OV-3 = tested on: SK-OV-3
DLD-1 = tested on: DLD-1
SF-268 = tested on: SF-268
HCT-116 = tested on: HCT-116
SNB-75 = tested on: SNB-75
OVCAR-4 = tested on: OVCAR-4
SF-295 = tested on: SF-295
LXFL 529 = tested on: LXFL 529
HCC 2998 = tested on: HCC 2998
UACC-62 = tested on: UACC-62
EKVX = tested on: EKVX
UO-31 = tested on: UO-31
NCI-H522 = tested on: NCI-H522
KM12 = tested on: KM12
IGROV-1 = tested on: IGROV-1
U-251 = tested on: U-251
OVCAR-8 = tested on: OVCAR-8
SNB-78 = tested on: SNB-78
RXF 393 = tested on: RXF 393
A549 = tested on: A549
SK-MEL-28 = tested on: SK-MEL-28
HOP-92 = tested on: HOP-92
NCI-H460 = tested on: NCI-H460
SN12C = tested on: SN12C
CAKI-1 = tested on: CAKI-1
UACC-257 = tested on: UACC-257
ACHN = tested on: ACHN
NCI-H23 = tested on: NCI-H23
MOLT-4 = tested on: MOLT-4
LOX IMVI = tested on: LOX IMVI
SK-MEL-5 = tested on: SK-MEL-5
COLO 205 = tested on: COLO 205
RPMI-8226 = tested on: RPMI-8226
CCRF-CEM = tested on: CCRF-CEM
786-0 = tested on: 786-0
TK-10 = tested on: TK-10
NCI-H226 = tested on: NCI-H226
HCT-15 = tested on: HCT-15
XF498 = tested on: XF498
SNB-19 = tested on: SNB-19
KM-20L2 = tested on: KM-20L2
HOP-62 = tested on: HOP-62
SK-MEL-2 = tested on: SK-MEL-2
DMS-273 = tested on: DMS-273
SR = tested on: SR
M14 = tested on: M14
HT-29 = tested on: HT-29
K562 = tested on: K562
SW-620 = tested on: SW-620
M19-MEL = tested on: M19-MEL

With `CC(C)C(/C=C/c1ccc(Br)cc1)=N\NC(N)=O` the GI50 (DMS-114) was > 100 µM (inactive), the GI50 (OVCAR-5) was > 100 µM (inactive) and the GI50 (HL-60) was > 100 µM (inactive). For the same compound, the GI50 (SF-539) was > 100 µM (inactive), the GI50 (SK-OV-3) was > 100 µM (inactive) and the GI50 (DLD-1) was > 100 µM (inactive). The GI50 (SF-268) was > 100 µM (inactive), the GI50 (HCT-116) was > 100 µM (inactive) and the GI50 (SNB-75) was > 100 µM (inactive). The GI50 (OVCAR-4) was > 100 µM (inactive), the GI50 (SF-295) was > 100 µM (inactive) and the GI50 (LXFL 529) was 56.4 µM (inactive). The GI50 (HCC 2998) was 12.3 µM (inactive), the GI50 (UACC-62) was > 100 µM (inactive) and the GI50 (EKVX) was > 100 µM (inactive). For the same compound, the GI50 (UO-31) was 18.2 µM (inactive), the GI50 (NCI-H522) was 70.3 µM (inactive) and the GI50 (KM12) was > 100 µM (inactive). For the same compound, the GI50 (IGROV-1) was > 100 µM (inactive), the GI50 (U-251) was > 100 µM (inactive) and the GI50 (OVCAR-8) was > 100 µM (inactive). The GI50 (SNB-78) was > 100 µM (inactive), the GI50 (RXF 393) was > 100 µM (inactive) and the GI50 (A549) was > 100 µM (inactive). The GI50 (SK-MEL-28) was > 100 µM (inactive), the GI50 (HOP-92) was > 100 µM (inactive) and the GI50 (NCI-H460) was > 100 µM (inactive). For the same compound, the GI50 (SN12C) was > 100 µM (inactive), the GI50 (CAKI-1) was > 100 µM (inactive) and the GI50 (UACC-257) was > 100 µM (inactive). For the same compound, the GI50 (ACHN) was > 100 µM (inactive), the GI50 (NCI-H23) was > 100 µM (inactive) and the GI50 (MOLT-4) was > 100 µM (inactive). For the same compound, the GI50 (LOX IMVI) was > 100 µM (inactive), the GI50 (SK-MEL-5) was > 100 µM (inactive) and the GI50 (COLO 205) was > 100 µM (inactive). For the same compound, the GI50 (RPMI-8226) was > 100 µM (inactive), the GI50 (CCRF-CEM) was > 100 µM (inactive) and the GI50 (786-0) was > 100 µM (inactive). The GI50 (TK-10) was > 100 µM (inactive), the GI50 (NCI-H226) was > 100 µM (inactive) and the GI50 (HCT-15) was > 100 µM. The GI50 (XF498) was > 100 µM (inactive), the GI50 (SNB-19) was > 100 µM (inactive) and the GI50 (KM-20L2) was > 100 µM (inactive). For the same compound, the GI50 (HOP-62) was > 100 µM (inactive), the GI50 (SK-MEL-2) was > 100 µM (inactive) and the GI50 (DMS-273) was > 100 µM (inactive). For the same compound, the GI50 (SR) was > 100 µM (inactive), the GI50 (M14) was > 100 µM (inactive) and the GI50 (HT-29) was > 100 µM (inactive). For the same compound, the GI50 (K562) was > 100 µM (inactive), the GI50 (SW-620) was > 100 µM (inactive) and the GI50 (M19-MEL) was 12.2 µM (inactive).
